Values quoted from earlier work as cited in patent US10709686B2, “Methods for treating pulmonary fibrosis” (David Weinstein Consulting, Inc., priority 2018, dated 2020).

What was measured:
[1] = molecular target: T1, FK506 binding protein 4 (FKBP52) (Homo sapiens, UniProt Q02790)
T1 sequence (Q02790 1-459): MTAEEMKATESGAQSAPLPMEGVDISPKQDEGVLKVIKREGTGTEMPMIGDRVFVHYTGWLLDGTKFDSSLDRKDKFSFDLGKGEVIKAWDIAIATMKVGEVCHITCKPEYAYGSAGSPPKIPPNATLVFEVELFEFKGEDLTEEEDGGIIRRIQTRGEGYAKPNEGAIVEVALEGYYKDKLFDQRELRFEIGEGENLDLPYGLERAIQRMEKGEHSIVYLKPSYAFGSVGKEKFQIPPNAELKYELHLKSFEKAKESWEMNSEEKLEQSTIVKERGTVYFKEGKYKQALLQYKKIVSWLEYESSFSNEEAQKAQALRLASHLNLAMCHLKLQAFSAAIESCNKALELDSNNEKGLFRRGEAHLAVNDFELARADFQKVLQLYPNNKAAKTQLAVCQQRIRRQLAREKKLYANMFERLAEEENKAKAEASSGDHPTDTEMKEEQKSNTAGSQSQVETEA

[2] = molecular target: T2, FKBP52 (Homo sapiens, UniProt Q02790); settings: treatment of fibroblasts for 2 hours
T2 construct: endogenous in cells
T2 sequence (Q02790 1-459): T1 sequence (Q02790 1-459)

Binding affinity to FKBP52 [1]: binds with high affinity
Structure (SMILES): CCC(C)(C)C(=O)C(=O)N1CCC[C@H]1C(=O)O [RT175]
Translocation of FKBP52 to the nucleus [2]: results in the translocation of FKBP52 to the nucleus
